According to ChEMBL document CHEMBL3244029, “Synthesis and stereospecific antipsychotic activity of (-)-1-cyclopropylmethyl-4-(3-trifluoromethylthio-5H-dibenzo[a,d]cyclohepten-5-ylidene)piperidine” (J Med Chem, 1977):
The source made the active and inactive calls. The rule behind the calls is not given here.

Key:
[1] = test system: Saimiri; experiment: Antipsychotic activity in squirrel monkey assessed as inhibition of conditioned avoidance response measured as maximum number of shocks possible per 30 mins interval at 1 mg/kg, po administered followed by saline 15 mins later measured after 1.5 to 2 hrs of dosing; format: functional
[2] = test system: Saimiri; experiment: Antipsychotic activity in squirrel monkey assessed as inhibition of conditioned avoidance response measured as maximum number of shocks possible per 30 mins interval at 1 mg/kg, po administered followed by saline 15 mins later measured after 1 to 1.5 hrs of dosing; format: functional
[3] = test system: Saimiri; experiment: Antipsychotic activity in squirrel monkey assessed as inhibition of conditioned avoidance response measured as maximum number of shocks possible per 30 mins interval at 1 mg/kg, po administered followed by saline 15 mins later measured after 0.5 to 1 hrs of dosing; format: functional
[4] = test system: Saimiri; experiment: Antipsychotic activity in squirrel monkey assessed as inhibition of conditioned avoidance response measured as maximum number of shocks possible per 30 mins interval at 1 mg/kg, po administered followed by saline 15 mins later measured after 0 to 0.5 hrs of dosing; format: functional
[5] = test system: Saimiri; experiment: Antipsychotic activity in squirrel monkey assessed as inhibition of conditioned avoidance response measured as maximum number of shocks possible per 30 mins interval at 1 mg/kg, po administered followed by saline 15 mins later measured after 2 to 2.5 hrs of dosing; format: functional
[6] = test system: Saimiri; experiment: Antipsychotic activity in squirrel monkey assessed as inhibition of conditioned avoidance response measured as maximum number of shocks possible per 30 mins interval at 1 mg/kg, po administered followed by saline 15 mins later measured after 2.5 to 3 hrs of dosing; format: functional
[7] = test system: Saimiri; experiment: Antipsychotic activity in squirrel monkey assessed as inhibition of conditioned avoidance response measured as maximum number of shocks possible per 30 mins interval at 1 mg/kg, po administered followed by saline 15 mins later measured after 3 to 3.5 hrs of dosing; format: functional
[8] = test system: Saimiri; experiment: Antipsychotic activity in squirrel monkey assessed as inhibition of conditioned avoidance response measured as maximum number of shocks possible per 30 mins interval at 1 mg/kg, po administered followed by saline 15 mins later measured after 3.5 to 4 hrs of dosing; format: functional
[9] = test system: Saimiri; experiment: Antipsychotic activity in squirrel monkey assessed as inhibition of conditioned avoidance response measured as maximum number of shocks possible per 30 mins interval at 1 mg/kg, po administered followed by saline 15 mins later measured after 4 to 4.5 hrs of dosing; format: functional
[10] = test system: Saimiri; experiment: Antipsychotic activity in po dosed squirrel monkey assessed as inhibition of conditioned avoidance response measured as maximum number of shocks; format: functional
[11] = test system: Saimiri; experiment: Antipsychotic activity in squirrel monkey assessed as inhibition of conditioned avoidance response at 9 mg/kg, po; format: functional, organism-based; design: dose 9 mg/kg
[12] = test system: Saimiri; experiment: Antipsychotic activity in squirrel monkey assessed as inhibition of conditioned avoidance response measured as maximum number of shocks possible per 30 mins interval at 1 mg/kg, po after 0 to 30 mins dosing; format: functional
[13] = test system: Saimiri; experiment: Antipsychotic activity in squirrel monkey assessed as inhibition of conditioned avoidance response measured as maximum number of shocks possible per 30 mins interval at 1 mg/kg, po after 30 to 60 mins dosing; format: functional
[14] = test system: Saimiri; experiment: Antipsychotic activity in squirrel monkey assessed as inhibition of conditioned avoidance response measured as maximum number of shocks possible per 30 mins interval at 1 mg/kg, po after 60 to 90 mins dosing; format: functional
[15] = test system: Saimiri; experiment: Antipsychotic activity in squirrel monkey assessed as inhibition of conditioned avoidance response measured as maximum number of shocks possible per 30 mins interval at 3 mg/kg, po after 90 to 120 mins dosing; format: functional
[16] = test system: Saimiri; experiment: Antipsychotic activity in squirrel monkey assessed as inhibition of conditioned avoidance response measured as maximum number of shocks possible per 30 mins interval at 3 mg/kg, po after 120 to 150 mins dosing; format: functional
[17] = test system: Saimiri; experiment: Antipsychotic activity in squirrel monkey assessed as inhibition of conditioned avoidance response measured as maximum number of shocks possible per 30 mins interval at 3 mg/kg, po after 150 to 180 mins dosing; format: functional
[18] = test system: Saimiri; experiment: Antipsychotic activity in squirrel monkey assessed as inhibition of conditioned avoidance response at 27 mg/kg, po; format: functional, organism-based; design: dose 27 mg/kg

## FC(F)(F)Sc1ccc2c(c1)C(=C1CCN(CC3CC3)CC1)c1ccccc1C=C2.O=P(O)(O)O
[1]
  %max: 62%
[2]
  %max: 61.3%
[3]
  %max: 9.6%
[4]
  %max: 0%
[5]
  %max: 65%
[6]
  %max: 69%
[7]
  %max: 66.7%
[8]
  %max: 90%
[9]
  %max: 82%
[10]
  ED50: 0.99 mg/kg
[10]; Saimiri, in Primates, po, read-out: ED50
  ED50: 0.51 mg/kg

## CN1CCC(=C2c3ccccc3C=Cc3ccc(SC(F)(F)F)cc32)CC1
[11]
  inhibition: inactive
[12]
  %max: 0%
[13]
  %max: 0.66%
[14]
  %max: 8%
[15]
  %max: 77.4%
[16]
  %max: 100%
[17]
  %max: 100%

## FC(F)(F)Sc1ccc2c(c1)C(=C1CCN(CC3CC3)CC1)c1ccccc1C=C2
[18]
  inhibition: inactive
